Measured values published in patent publication US7947717B2 (priority 2008, dated 2011).
Read-outs that look alike come from different tables or passages of the source.

Columns and labels:
human CYP2D6 = human CYP2D6 (Homo sapiens, UniProt P10635); experiment: biochemical
lethal factor (LF) = lethal factor (LF) (Bacillus anthracis, UniProt P15917); experiment: biochemical; assay type: biochemical
physchem = conditions: 23 °C, pH 7.4, aqueous with cosolvent or surfactant or cyclodextrin, kinetic from dmso stock
in vitro [1] = conditions: s9
human CYP 2C19 = human CYP 2C19 (Homo sapiens, UniProt P33261); experiment: biochemical
human CYP 2C19, sequence (P33261 whole entry): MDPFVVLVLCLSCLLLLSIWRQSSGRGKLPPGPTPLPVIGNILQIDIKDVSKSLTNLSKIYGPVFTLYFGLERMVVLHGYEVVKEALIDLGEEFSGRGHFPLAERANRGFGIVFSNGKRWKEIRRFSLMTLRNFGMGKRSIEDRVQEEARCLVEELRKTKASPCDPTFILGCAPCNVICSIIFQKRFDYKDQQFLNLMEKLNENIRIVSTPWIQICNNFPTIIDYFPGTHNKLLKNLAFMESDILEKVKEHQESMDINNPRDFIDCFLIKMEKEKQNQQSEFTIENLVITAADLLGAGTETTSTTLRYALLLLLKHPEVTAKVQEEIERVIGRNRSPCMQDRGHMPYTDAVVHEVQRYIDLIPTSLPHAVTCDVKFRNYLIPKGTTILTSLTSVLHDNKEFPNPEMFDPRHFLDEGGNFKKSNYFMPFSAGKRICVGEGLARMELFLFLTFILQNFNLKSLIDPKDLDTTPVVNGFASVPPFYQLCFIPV

HepG2 cells = conditions: human
hERG = hERG (Homo sapiens, UniProt Q12809); experiment: in vitro
hERG, sequence (Q12809 whole entry): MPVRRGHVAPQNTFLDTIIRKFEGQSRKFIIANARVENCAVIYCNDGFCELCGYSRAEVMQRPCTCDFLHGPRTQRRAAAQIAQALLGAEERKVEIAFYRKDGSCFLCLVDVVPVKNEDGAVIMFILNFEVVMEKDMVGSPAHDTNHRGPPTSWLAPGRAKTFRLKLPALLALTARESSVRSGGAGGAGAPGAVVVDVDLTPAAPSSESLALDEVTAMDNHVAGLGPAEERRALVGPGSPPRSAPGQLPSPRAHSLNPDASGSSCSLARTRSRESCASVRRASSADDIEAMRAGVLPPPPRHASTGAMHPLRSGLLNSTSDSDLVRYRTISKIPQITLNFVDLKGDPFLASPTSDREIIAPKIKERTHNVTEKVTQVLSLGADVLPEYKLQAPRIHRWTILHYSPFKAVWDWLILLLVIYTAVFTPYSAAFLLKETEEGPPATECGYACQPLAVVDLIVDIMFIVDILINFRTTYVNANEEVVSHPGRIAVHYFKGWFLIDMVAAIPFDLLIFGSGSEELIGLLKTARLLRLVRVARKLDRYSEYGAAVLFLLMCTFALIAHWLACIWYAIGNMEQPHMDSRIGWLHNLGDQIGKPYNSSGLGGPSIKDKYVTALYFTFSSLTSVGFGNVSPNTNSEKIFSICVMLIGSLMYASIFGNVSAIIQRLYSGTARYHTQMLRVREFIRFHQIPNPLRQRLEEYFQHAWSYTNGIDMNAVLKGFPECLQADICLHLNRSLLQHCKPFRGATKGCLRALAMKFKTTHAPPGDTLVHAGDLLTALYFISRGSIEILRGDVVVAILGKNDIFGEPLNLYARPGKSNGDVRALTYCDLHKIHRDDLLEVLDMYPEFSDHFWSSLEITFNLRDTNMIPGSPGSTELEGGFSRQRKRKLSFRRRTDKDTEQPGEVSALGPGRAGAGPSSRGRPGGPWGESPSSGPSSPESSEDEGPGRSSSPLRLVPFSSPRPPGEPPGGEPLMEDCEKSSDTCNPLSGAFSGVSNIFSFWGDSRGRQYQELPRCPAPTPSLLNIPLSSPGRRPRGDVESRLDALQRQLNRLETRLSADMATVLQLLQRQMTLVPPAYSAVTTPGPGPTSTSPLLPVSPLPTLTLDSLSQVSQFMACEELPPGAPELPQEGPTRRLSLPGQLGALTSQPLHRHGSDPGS

[2] = rat
human CYP1A2 = molecular target: T1, human CYP1A2 (Homo sapiens, UniProt P05177); experiment: biochemical
T1 sequence (P05177 1-516): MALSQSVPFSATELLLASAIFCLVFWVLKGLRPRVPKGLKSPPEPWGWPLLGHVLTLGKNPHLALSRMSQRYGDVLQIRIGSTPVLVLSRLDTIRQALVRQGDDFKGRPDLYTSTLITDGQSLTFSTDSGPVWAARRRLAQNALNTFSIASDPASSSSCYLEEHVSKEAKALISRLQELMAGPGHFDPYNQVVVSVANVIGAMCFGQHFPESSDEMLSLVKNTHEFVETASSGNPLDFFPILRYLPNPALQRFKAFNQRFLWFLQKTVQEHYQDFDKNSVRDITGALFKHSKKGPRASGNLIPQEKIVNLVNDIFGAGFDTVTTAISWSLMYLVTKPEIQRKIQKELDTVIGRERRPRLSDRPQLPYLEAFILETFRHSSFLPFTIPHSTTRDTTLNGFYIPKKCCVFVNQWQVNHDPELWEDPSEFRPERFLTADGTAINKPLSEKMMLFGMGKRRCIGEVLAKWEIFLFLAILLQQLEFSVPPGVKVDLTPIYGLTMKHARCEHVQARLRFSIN

human CYP2C9 = human CYP2C9 (Homo sapiens, UniProt P11712); experiment: biochemical
human CYP2C9, sequence (P11712 whole entry): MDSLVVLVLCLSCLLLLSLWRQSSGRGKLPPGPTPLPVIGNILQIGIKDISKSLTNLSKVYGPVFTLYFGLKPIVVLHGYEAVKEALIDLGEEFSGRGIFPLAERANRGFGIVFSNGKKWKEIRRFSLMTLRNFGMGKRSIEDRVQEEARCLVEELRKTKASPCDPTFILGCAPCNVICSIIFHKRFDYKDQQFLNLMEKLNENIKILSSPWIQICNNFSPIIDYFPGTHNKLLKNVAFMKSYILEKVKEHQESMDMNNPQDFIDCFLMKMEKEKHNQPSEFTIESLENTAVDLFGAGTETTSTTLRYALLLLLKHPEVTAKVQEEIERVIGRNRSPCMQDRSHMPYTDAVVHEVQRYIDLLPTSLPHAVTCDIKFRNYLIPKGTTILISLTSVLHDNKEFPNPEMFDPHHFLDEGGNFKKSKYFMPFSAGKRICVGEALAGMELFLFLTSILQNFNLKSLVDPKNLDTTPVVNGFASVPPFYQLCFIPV

in vitro [3] = conditions: rat, hepatocytes, pH 7.4
MMP-9 = molecular target: T2, MMP-9 (Homo sapiens, UniProt P14780); experiment: MMP-9 assay (Anaspec kit); assay type: biochemical
T2 construct: purchased Anaspec, Inc. 71151/71155

MMP-2 = molecular target: T3, MMP-2 (Homo sapiens, UniProt P08253); experiment: MMP-2 assay (Anaspec kit); assay type: biochemical
T3 construct: purchased Anaspec, Inc. 71151/71155
T3 sequence (P08253 110-660): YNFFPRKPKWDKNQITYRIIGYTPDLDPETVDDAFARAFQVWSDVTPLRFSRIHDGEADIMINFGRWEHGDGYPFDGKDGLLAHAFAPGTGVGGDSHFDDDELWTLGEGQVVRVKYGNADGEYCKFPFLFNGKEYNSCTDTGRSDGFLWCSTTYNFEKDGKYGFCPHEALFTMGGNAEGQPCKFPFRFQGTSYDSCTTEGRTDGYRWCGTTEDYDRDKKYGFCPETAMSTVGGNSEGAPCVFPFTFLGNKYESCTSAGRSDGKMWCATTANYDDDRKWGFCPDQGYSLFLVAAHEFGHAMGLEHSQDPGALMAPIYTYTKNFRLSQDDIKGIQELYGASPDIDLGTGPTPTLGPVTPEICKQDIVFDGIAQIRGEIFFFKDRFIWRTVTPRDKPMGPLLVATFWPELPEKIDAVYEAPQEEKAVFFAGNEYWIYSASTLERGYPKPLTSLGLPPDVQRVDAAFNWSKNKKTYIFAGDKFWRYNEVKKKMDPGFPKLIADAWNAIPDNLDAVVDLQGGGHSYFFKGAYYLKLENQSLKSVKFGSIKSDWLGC

BoNT A = BoNT A (Clostridium botulinum, UniProt P0DPI0); experiment: biochemical
[4] = system: Bacillus anthracis Sterne spores; design: species or system A/J mice; conditions: mouse, in vivo
RAW 264.7 cells = assay type: cell-based, Murine
human CYP3A4 = human CYP3A4 (Homo sapiens, UniProt P08684); experiment: biochemical
human CYP3A4, sequence (P08684 whole entry, looked up): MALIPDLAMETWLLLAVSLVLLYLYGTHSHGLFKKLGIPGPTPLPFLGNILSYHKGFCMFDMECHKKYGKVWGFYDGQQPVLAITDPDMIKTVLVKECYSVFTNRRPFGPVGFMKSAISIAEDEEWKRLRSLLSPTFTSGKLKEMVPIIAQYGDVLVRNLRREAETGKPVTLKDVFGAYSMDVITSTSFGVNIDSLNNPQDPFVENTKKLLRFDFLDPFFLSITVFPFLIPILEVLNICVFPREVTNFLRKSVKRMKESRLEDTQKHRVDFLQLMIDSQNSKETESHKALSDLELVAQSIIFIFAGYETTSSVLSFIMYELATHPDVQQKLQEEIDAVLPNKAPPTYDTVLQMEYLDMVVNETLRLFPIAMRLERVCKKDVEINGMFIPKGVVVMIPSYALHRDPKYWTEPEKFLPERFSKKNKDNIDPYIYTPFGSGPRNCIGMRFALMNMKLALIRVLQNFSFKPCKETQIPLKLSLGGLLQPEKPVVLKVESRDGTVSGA

[5] = rat, hepatocytes
[6] = not given; remark: listed apart in the source
human MDR1 ABCB1/Pgp = human MDR1 ABCB1/Pgp (Homo sapiens, UniProt P08183)
LF metalloproteinase = LF metalloproteinase (Bacillus anthracis, UniProt P15917); conditions: read-out: Ki of LF metalloproteinase activity; cited from earlier work
LF metalloproteinase, sequence (P15917 34-809 limits assumed): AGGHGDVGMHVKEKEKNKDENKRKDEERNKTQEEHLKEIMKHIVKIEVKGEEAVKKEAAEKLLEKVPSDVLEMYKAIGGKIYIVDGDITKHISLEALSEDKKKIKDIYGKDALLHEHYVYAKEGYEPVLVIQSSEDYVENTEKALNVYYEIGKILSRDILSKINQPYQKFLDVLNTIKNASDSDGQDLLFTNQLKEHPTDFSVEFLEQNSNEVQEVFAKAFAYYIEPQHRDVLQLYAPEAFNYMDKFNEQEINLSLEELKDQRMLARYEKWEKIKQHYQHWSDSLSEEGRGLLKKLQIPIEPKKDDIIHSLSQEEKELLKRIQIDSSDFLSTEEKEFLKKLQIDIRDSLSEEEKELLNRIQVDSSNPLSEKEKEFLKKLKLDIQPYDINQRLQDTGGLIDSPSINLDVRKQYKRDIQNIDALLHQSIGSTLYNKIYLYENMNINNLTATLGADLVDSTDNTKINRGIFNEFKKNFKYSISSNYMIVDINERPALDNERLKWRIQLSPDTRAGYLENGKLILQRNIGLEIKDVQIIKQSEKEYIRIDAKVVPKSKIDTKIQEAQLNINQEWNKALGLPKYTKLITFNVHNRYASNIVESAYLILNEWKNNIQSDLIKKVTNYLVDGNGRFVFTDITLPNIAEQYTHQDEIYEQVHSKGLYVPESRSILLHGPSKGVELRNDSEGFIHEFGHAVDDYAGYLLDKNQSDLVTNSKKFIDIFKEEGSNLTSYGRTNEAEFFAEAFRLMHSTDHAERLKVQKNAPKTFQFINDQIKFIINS

[7] = read-out: IC50 (μM) of selected LF compounds (Table 7)

lethal factor (LF), sequence (P15917 34-809 limits assumed): as above
human CYP2D6, sequence (P10635 whole entry): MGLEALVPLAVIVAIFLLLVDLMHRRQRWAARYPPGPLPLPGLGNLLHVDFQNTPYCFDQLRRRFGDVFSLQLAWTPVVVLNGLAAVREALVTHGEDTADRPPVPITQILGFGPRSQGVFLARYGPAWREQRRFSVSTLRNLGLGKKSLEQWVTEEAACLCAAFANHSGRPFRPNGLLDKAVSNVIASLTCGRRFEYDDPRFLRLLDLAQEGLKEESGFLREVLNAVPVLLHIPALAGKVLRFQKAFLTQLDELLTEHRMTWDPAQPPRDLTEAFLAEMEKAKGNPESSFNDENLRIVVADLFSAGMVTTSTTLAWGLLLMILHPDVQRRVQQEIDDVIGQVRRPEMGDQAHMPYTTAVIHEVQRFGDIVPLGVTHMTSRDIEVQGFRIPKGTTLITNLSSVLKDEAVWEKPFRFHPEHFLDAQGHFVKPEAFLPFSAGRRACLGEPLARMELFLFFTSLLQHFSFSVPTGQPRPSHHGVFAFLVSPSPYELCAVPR

| SMILES | IC50 (human CYP2D6) | solubility kinetic (physchem) | half-life (in vitro [1]) | hepatocyte CLint (in vitro [1]) | IC50 (human CYP 2C19) | Cytox. (c) Cytotoxicity against HepG2 cells (HepG2 cells) | inhibition at 30 µM (hERG) | Plasma Stab. T = 30 min (l) [2] | IC50 (human CYP1A2) | IC50 (human CYP2C9) | half-life (in vitro [3]) | hepatocyte CLint (in vitro [3]) | IC50 (lethal factor (LF); [7]) | Met. Stab. t1/2 (k) [5] | Liver S9 Stab t1/2 (m) | Pampa (d) permeability class [6] | other results |
| --- | --- | --- | --- | --- | --- | --- | --- | --- | --- | --- | --- | --- | --- | --- | --- | --- | --- |
| COc1ccc(-c2ccc(/C=C3\SC(=S)N(CC(=O)O)C3=O)o2)cc1Cl [Compound 1] | 30.5 µM | < 0.01 mg/mL | 128 min | 5.6 | 31.3 µM | Nontoxic up to 100 μM | 58% | 90% | 20.9 µM | 28.3 µM | 37.1 min | 21.6 µL/min/1e6 cells | – | – | – | – | IC50 (lethal factor (LF)): 0.29 µM |
| O=C(O)CN1C(=O)/C(=C/c2cn(-c3ccc(Cl)cc3)nc2-c2ccc(Cl)cc2)SC1=S [Compound 34, (Z)-2-(5-((1,3-bis(4-chlorophenyl)-1H-pyrazol-4-yl)methylene)-4-oxo-2-thioxothiazolidin-3-yl)acetic acid] | – | – | – | – | – | – | – | – | – | – | – | – | – | – | – | – | IC50 (lethal factor (LF); pH 7.4, read-out: LF IC50): 2.95 µM; inhibition of MMP-9 (in words) (MMP-9): did not inhibit; inhibition of MMP-2 (in words) (MMP-2): did not inhibit; IC50 (BoNT A): 8.18 µM; survival compared to control group (in words, FIG. 3) [4]: survived significantly better than control; protection of macrophages from LF/PA-induced cell death (RAW 264.7 cells): protect macrophages from LF/PA-induced cell death |
| O=C(O)CN1C(=O)/C(=C/c2ccc(-c3ccc(Cl)c(Cl)c3)o2)SC1=S [Compound 64] | 47.6 µM | < 0.01 mg/mL | – | – | 36.9 µM | Nontoxic up to 100 μM | 67% | 79% | 2.79 µM | > 50 µM | – | – | 0.26 µM | Degraded | Degraded | Med. | IC50 (human CYP3A4): > 50 µM |
| O=C(O)CN1C(=O)/C(=C/c2ccc(-c3cc(C(F)(F)F)ccc3Cl)o2)SC1=S [Compound 65] | > 100 µM | < 0.01 mg/mL | 37.3 min | 25 | > 100 µM | Nontoxic up to 100 μM | 45% | 82% | 20.5 µM | > 100 µM | 42.4 min | 19.8 µL/min/1e6 cells | 0.19 µM | – | – | – | IC50 (human MDR1 ABCB1/Pgp): > 100 µM |
| O=C(O)CN1C(=O)/C(=C/c2ccc(-c3cccs3)s2)SC1=S [Compound 66, (Z)-2-(4-oxo-5-((5-(thiophen-2-yl)thiophen-2-yl)methylene)-2-thioxothiazolidin-3-yl)acetic acid] | – | < 0.01 mg/mL | – | – | – | Nontoxic up to 100 μM | 29% | 90% | – | > 100 µM | – | – | 2.3 µM | Degraded | Degraded | Med. | – |
| CNC(=O)[C@H](Cc1c[nH]c2ccccc12)NC(=O)[C@@H](CC(=O)NO)CC(C)C [GM6001] | – | – | – | – | – | – | – | – | – | – | – | – | – | – | – | – | Ki (LF metalloproteinase): ~5 µM |
